Columns and labels:
[1] = target: T1, NAD-dependent protein deacetylase sirtuin-2 (Homo sapiens) (UniProt Q8IXJ6); test: Inhibition of recombinant GST-tagged SIRT2 at 200 uM by Fluor de Lys fluorescence assay
T1 sequence (whole entry): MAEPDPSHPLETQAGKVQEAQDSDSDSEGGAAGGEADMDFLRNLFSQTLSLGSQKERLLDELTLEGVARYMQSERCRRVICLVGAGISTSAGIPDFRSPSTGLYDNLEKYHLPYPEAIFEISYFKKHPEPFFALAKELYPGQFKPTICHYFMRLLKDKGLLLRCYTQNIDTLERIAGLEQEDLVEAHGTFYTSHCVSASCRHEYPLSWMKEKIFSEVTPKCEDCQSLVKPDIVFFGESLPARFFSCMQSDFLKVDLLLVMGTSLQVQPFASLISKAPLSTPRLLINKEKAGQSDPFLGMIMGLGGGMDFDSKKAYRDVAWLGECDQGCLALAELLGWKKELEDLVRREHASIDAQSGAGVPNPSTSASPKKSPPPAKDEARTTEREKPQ

[2] = target: T2, NAD-dependent protein deacetylase sirtuin-2 (Homo sapiens, UniProt Q8IXJ6); test: Inhibition of recombinant GST-tagged SIRT2 by Fluor de Lys fluorescence assay
T2 sequence (Q8IXJ6 whole entry): T1 sequence (whole entry)

Row | Structure (SMILES) | inhibition [1] [%] | IC50 [2] [µM]
1 | C[C@H](NC(=O)CCc1ccccc1)C(=O)NCCc1c[nH]c2ccc(OCc3ccccc3)cc12 | 50.2 | 86
2 | C[C@H](NC(=O)/C=C/c1ccccc1)C(=O)NCCc1c[nH]c2ccc(OCc3ccccc3)cc12 | 43.7 | –
3 | CC(C)(NC(=O)CCc1ccccc1)C(=O)NCCc1c[nH]c2ccccc12 | 12.5 | –
4 | O=C(CCc1ccccc1)NCCc1c[nH]c2ccccc12 | 44.1 | –
5 | C[C@H](NC(=O)/C=C/c1ccccc1)C(=O)NCCc1c[nH]c2ccccc12 | 59.6 | 109
6 | CC(C)(NC(=O)CCc1ccc(O)cc1)C(=O)NCCc1c[nH]c2ccccc12 | 19.5 | –
7 | COc1ccccc1/C=C/C(=O)NC(C)(C)C(=O)NCCc1c[nH]c2ccccc12 | 35 | –
8 | O=C(NCCc1c[nH]c2ccccc12)[C@@H]1CCCN1C(=O)/C=C/c1ccccc1 | 36.6 | –
9 | O=C(/C=C/c1ccccc1)NCC(=O)NCCc1c[nH]c2ccccc12 | 22.7 | –
10 | O=C(/C=C/c1ccccc1)NCC(=O)NCCc1c[nH]c2ccc(OCc3ccccc3)cc12 | 32.9 | –
11 | C[C@H](NC(=O)/C=C/c1ccccc1)C(=O)NCCc1ccccc1 | 29.6 | –
12 | O=C(NCCc1c[nH]c2ccc(OCc3ccccc3)cc12)[C@@H]1CCCN1C(=O)CCc1ccccc1 | 29.8 | –
13 | O=C(/C=C/c1ccccc1)NCCc1c[nH]c2ccccc12 | 58 | 173
14 | COc1ccc2[nH]cc(CCNC(=O)CNC(=O)/C=C/c3ccccc3)c2c1 | 24.2 | –
15 | CC(C)(NC(=O)/C=C/c1cccc([N+](=O)[O-])c1)C(=O)NCCc1c[nH]c2ccccc12 | 42.1 | –

Now from value to compound:

Row | inhibition [1] [%] | IC50 [2] [µM] | Structure (SMILES)
16 | 2 | – | CC(C)(NC(=O)/C=C/c1ccc(O)cc1)C(=O)NCCc1cccnc1
17 | 46.7 | – | CC(C)(NC(=O)/C=C/c1cccc(O)c1)C(=O)NCCc1c[nH]c2ccccc12
18 | 61.3 | 105 | CC(C)(NC(=O)/C=C/c1ccc(F)cc1)C(=O)NCCc1c[nH]c2ccccc12
19 | 44.3 | – | O=C(/C=C/c1ccc(O)cc1)NCCc1c[nH]c2ccccc12
20 | 45.9 | – | COc1cccc(/C=C/C(=O)NC(C)(C)C(=O)NCCc2c[nH]c3ccccc23)c1
21 | 49.5 | 100 | CC(C)(NC(=O)/C=C/c1ccccc1)C(=O)NCCc1c[nH]c2ccccc12

— ChEMBL document CHEMBL1139425, “Characterization of the binding properties of SIRT2 inhibitors with a N-(3-phenylpropenoyl)-glycine tryptamide backbone” (Bioorg Med Chem, 2008)
